From ChEMBL document CHEMBL1129148, “Synthesis and biological evaluation of 4-alkoxy substituted trinems. Part I” (1996)
In brackets after ≈: the same amount, converted by molar mass.

Key:
Format in all cases: functional
[1] = tested on: Clostridium perfringens; test: Compound was tested for in vitro antibacterial activity against Clostridium perfringens 615E
[2] = tested on: Staphylococcus aureus; test: Compound was tested for in vitro antibacterial activity against Staphylococcus aureus 853E penicillinase (PCI) producing strain
[3] = tested on: Escherichia coli; test: Compound was tested for in vitro antibacterial activity against Escherichia coli 1919 a beta-lactamase producing strain(TEM 1) with permeable outer membrane
[4] = tested on: Pseudomonas aeruginosa; test: Compound was tested for in vitro antibacterial activity against Pseudomonas aeruginosa 1911
[5] = tested on: Streptococcus pneumoniae; test: Compound was tested for in vitro antibacterial activity against Streptococcus pneumoniae 3512
[6] = tested on: Escherichia coli; test: Compound was tested for in vitro antibacterial activity against Escherichia coli 1850E
[7] = tested on: Enterococcus faecalis; test: Compound was tested for in vitro antibacterial activity against […] faecalis 850
[8] = tested on: Bacteroides fragilis; test: Compound was tested for in vitro antibacterial activity against Bacteroides fragilis 2017

SMILES	MIC [1]	MIC [2]	MIC [3]	MIC [4]	MIC [5]	MIC [6]	MIC [7]	MIC [8]
C[C@@H](O)[C@H]1C(=O)N2C(C(=O)[O-])=C3[C@@H](OCCO)CCC[C@@H]3[C@H]12.[K+]	0.06 µg/mL	0.5 µg/mL	0.5 µg/mL	> 32 µg/mL	0.1 µg/mL	0.5 µg/mL	8 µg/mL	0.1 µg/mL
C[C@@H](O)[C@H]1C(=O)N2C(C(=O)[O-])=C3[C@@H](OCCC#N)CCC[C@@H]3[C@H]12.[K+]	0.03 µg/mL	0.5 µg/mL	1 µg/mL	> 32 µg/mL	0.06 µg/mL	4 µg/mL	2 µg/mL	0.2 µg/mL
C[C@@H](O)[C@H]1C(=O)N2C(C(=O)O)=C(SCCNC=N)C[C@H]12 [IMIPENEM ANHYDROUS]	0.03 µg/mL (≈ 0.1 µM)	0.1 µg/mL (≈ 0.334 µM)	0.5 µg/mL (≈ 1.67 µM)	4 µg/mL (≈ 13.4 µM)	< 0.01 µg/mL	0.5 µg/mL (≈ 1.67 µM)	2 µg/mL (≈ 6.68 µM)	0.06 µg/mL (≈ 0.2 µM)
COCCO[C@H]1CCC[C@@H]2C1=C(C(=O)[O-])N1C(=O)[C@H]([C@@H](C)O)[C@@H]21.[K+]	> 32 µg/mL	8 µg/mL	32 µg/mL	> 32 µg/mL	8 µg/mL	> 32 µg/mL	> 32 µg/mL	32 µg/mL
C[C@@H](O)[C@H]1C(=O)N2C(C(=O)[O-])=C3[C@@H](OCCF)CCC[C@@H]3[C@H]12.[K+]	≤ 0.01 µg/mL	0.2 µg/mL	0.5 µg/mL	> 32 µg/mL	0.03 µg/mL	4 µg/mL	4 µg/mL	0.2 µg/mL
CO[C@H]1CCC[C@H]2C1=C(C(=O)[O-])N1C(=O)[C@H]([C@@H](C)O)[C@@H]21.[Na+] [SANFETRINEM SODIUM]	0.03 µg/mL	0.2 µg/mL	0.5 µg/mL	> 32 µg/mL	≤ 0.01 µg/mL	0.5 µg/mL	1 µg/mL	0.06 µg/mL
COCCO[C@H]1CCC[C@H]2C1=C(C(=O)[O-])N1C(=O)[C@H]([C@@H](C)O)[C@@H]21.[K+]	0.03 µg/mL	0.5 µg/mL	0.5 µg/mL	> 32 µg/mL	0.2 µg/mL	2 µg/mL	2 µg/mL	0.1 µg/mL
